From patent US11535598B2, “Histone deacetylases (HDACs) inhibitors” (ANNJI PHARMACEUTICAL CO., LTD., priority 2017, dated 2022)
Read-outs that look alike come from different tables or passages of the source.

Columns and labels:
MV4-11 = test: Cell proliferation assay MTT, MV4-11
Description: (§5) Cells were seeded in 96-well plates at a density of 5×10^3 cells per well and allowed to attach for 24 h before compound treatment. […] At end of the treatment period 72 h, 20 μl (5 mg/mL) 3-(4,5-dimethylthiazol-2-yl)-2,5-diphenyl-tetrazolium bromide (MTT) reagent was added each well. After 4 h incubation at 37° C., the supernatant was aspirated and the formazan crystals were dissolved in 100 μl of DMSO at 37° C. for 10 min with gentle agitation. The absorbance was measured at 570 nm using the Molecular Devices Microplate Reader. […] IC50 values were calculated from the relative viability values and concentrations by regression analysis.

in vitro [1] = settings: monkey
Description: as §5

U87MG [2] = settings: human, 72 h
Description: as §5

Human HDAC8 = Human HDAC8 (Homo sapiens (Human), UniProt Q9BY41); test: HDAC enzymatic assay, HDAC8; format: biochemical; settings: 10-dose IC50 mode with a 3-fold serial dilution; read-out: HDAC subtypes IC50 HDAC8
Human HDAC8, sequence (Q9BY41 whole entry): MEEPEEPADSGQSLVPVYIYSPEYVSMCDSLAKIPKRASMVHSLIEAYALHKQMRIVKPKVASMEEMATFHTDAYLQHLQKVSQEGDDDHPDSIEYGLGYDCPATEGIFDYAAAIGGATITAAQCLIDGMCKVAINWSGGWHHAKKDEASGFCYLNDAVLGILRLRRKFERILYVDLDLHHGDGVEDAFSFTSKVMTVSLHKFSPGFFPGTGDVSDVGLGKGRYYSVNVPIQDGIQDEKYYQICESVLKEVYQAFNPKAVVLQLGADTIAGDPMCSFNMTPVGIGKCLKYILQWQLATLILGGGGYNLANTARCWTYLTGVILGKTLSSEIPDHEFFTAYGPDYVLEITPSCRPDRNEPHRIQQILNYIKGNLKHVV
Description: (§1) The IC50 values for aforementioned compounds against HDACs were determined. HDAC 1 to 11 can be assayed by using acetylated AMC-labeled peptide substrate.
(§2) Human HDAC1 GenBank Accession No. NM_004964): Full length with C-terminal GST tag, MW=79.9 kDa, Human HDAC2 (GenBank Accession No. Q92769): Full length with C-terminal His tag, MW=60 kDa. Human HDAC3/NcoR2 (GenBank Accession No. […] for HDAC3, GenBank Accession No. NM_006312 for NcoR2): Complex of human HDAC3, full length with C-terminal His tag, MW=49.7 kDa, and human NCOR2, N-terminal GST tag, MW=39 kDa. Human HDAC6 (GenBank Accession No. BC069243): Full length with N-terminal GST tag, MW=159 kDa. Human HDAC8 (GenBank Accession No. NM018486): Full length, MW=42 kDa, expressed in an E. coli expression system.
(§3) 50 μM HDAC substrate. 1% DMSO final. Incubation for 2 hours at 30° C.

LNCap [3] = settings: human, 72 h
Description: as §5

Human HDAC1 = Human HDAC1 (Homo sapiens (Human), UniProt Q13547); test: HDAC enzymatic assay, HDAC1; format: biochemical; settings: 10-dose IC50 mode with a 3-fold serial dilution; read-out: HDAC subtypes IC50 HDAC1
Human HDAC1, sequence (Q13547 whole entry): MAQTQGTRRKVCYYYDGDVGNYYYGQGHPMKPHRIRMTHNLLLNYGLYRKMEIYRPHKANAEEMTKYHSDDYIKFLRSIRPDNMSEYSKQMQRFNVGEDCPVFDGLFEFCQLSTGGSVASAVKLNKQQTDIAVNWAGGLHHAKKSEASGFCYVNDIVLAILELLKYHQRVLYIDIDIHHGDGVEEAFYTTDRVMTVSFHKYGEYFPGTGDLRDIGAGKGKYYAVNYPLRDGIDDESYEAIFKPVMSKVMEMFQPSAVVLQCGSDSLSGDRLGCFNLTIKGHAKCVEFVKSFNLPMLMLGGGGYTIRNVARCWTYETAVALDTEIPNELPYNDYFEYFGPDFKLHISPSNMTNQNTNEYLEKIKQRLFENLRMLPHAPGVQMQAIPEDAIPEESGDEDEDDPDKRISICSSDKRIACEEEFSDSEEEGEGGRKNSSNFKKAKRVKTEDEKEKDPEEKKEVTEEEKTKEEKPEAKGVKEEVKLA
Description: as §1, §2
(§4) Human HDAC1, Human HDAC2, Human HDAC3/NcoR2, Human HDAC6, Human HDAC10, and Human HDAC11 were all expressed by baculovirus expression system in Sf9 cells.
as §3

Human HDAC6 = Human HDAC6 (Homo sapiens (Human), UniProt Q9UBN7); test: HDAC enzymatic assay, HDAC6; format: biochemical; settings: 10-dose IC50 mode with a 3-fold serial dilution; read-out: HDAC subtypes IC50 HDAC6
Human HDAC6, sequence (Q9UBN7 whole entry): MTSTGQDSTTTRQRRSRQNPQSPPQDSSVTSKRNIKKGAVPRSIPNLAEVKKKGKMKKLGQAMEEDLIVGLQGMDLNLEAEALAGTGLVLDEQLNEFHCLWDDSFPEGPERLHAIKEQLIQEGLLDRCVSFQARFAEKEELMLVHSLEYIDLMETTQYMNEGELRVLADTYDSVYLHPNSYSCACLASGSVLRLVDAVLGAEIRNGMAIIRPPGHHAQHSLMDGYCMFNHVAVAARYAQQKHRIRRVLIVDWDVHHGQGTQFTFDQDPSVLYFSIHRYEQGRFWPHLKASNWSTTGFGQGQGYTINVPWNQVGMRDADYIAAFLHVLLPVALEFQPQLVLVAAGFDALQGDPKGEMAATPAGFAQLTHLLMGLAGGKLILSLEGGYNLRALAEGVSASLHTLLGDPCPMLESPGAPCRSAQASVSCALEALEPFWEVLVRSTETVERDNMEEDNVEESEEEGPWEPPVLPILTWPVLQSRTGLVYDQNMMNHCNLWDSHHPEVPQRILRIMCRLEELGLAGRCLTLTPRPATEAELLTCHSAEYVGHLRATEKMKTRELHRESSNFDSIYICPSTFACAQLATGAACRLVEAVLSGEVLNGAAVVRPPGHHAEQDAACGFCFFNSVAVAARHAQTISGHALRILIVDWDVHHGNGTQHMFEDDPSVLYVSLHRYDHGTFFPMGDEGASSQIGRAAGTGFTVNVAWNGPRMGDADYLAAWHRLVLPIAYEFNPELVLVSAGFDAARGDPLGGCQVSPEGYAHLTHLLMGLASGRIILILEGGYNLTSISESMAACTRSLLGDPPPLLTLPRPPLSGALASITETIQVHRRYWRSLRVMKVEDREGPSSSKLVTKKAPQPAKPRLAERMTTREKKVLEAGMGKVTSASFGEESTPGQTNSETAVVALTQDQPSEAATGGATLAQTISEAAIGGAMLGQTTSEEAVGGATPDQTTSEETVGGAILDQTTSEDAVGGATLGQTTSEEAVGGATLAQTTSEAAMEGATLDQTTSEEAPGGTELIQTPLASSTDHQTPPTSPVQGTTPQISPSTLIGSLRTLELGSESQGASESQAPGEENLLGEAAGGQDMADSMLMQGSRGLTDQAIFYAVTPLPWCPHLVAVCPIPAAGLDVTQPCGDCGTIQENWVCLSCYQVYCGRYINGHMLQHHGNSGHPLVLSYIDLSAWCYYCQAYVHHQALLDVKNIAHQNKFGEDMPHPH
Description: as §1, §2, §4, §3

PANC1 [4] = settings: human, 72 h
Description: as §5

A549 [5] = settings: human, 72 h
Description: as §5

HepG2 [6] = settings: human, 72 h
Description: as §5

in vitro [7] = settings: human
Description: as §5

Human HDAC11 = Human HDAC11 (Homo sapiens (Human), UniProt Q96DB2); test: HDAC enzymatic assay, HDAC11; format: biochemical; settings: 10-dose IC50 mode with a 3-fold serial dilution; read-out: HDAC subtypes IC50 HDAC11
Human HDAC11, sequence (Q96DB2 whole entry): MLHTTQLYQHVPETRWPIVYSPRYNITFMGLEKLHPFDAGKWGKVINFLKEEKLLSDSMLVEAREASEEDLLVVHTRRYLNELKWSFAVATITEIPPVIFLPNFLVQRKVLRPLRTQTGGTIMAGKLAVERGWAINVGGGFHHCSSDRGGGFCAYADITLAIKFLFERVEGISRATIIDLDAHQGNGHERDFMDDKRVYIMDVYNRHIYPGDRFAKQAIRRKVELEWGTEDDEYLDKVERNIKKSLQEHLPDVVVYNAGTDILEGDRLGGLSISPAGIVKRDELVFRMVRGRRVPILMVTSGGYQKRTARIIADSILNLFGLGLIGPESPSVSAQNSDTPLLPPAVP
Description: as §1, §2, §4, §3

HL60 = test: Cell proliferation assay MTT, HL60; settings: read-out: Cytotoxicity IC50 Leukemia HL60, 72 hr treated
Description: as §5

MOLM13 = test: Cell proliferation assay MTT, MOLM13
Description: as §5

LNCap [8] = test: Cell proliferation assay MTT, LNCaP; settings: read-out: Cytotoxicity IC50 Prostate LNCap, 72 hr treated
Description: as §5

PANC1 [9] = test: Cell proliferation assay MTT, PANC1; settings: read-out: Cytotoxicity IC50 Pancreas PANC1, 72 hr treated
Description: as §5

A549 [10] = test: Cell proliferation assay MTT, A549; settings: read-out: Cytotoxicity IC50 Lung A549, 72 hr treated
Description: as §5

HepG2 [11] = test: Cell proliferation assay MTT, HepG2; settings: read-out: Cytotoxicity IC50 Liver HepG2, 72 hr treated
Description: as §5

U87MG [12] = test: Cell proliferation assay MTT, U87MG; settings: read-out: Cytotoxicity IC50 Glioblastoma U87MG, 72 hr treated
Description: as §5

[13] = human, MV4-11 leukemia cells, 72 h
[14] = human, MOLM13 leukemia cells, 72 h

O=C(NO)c1ccc(Cn2c(=O)n(CCc3ccccc3)c(=O)c3ccc(O)cc32)cc1 [Compound 4, N-hydroxy-4-((7-hydroxy-2,4-dioxo-3-phenethyl-3,4-dihydroquinazolin-1(2H)-yl)methyl)benzamide]
IC50 (MV4-11; [13]): 0.75 ± 0.11 µM
IC50 at 72 h (in vitro [1]): 156.4 ± 0.42 µM
IC50 (U87MG [2]): 4.28 ± 0.67 µM
IC50 (Human HDAC8): 2.75 µM
IC50 (LNCap [3]): 2.97 ± 0.22 µM
IC50 (Human HDAC1): 8.28 µM
IC50 (Human HDAC6): 0.028 µM
IC50 (PANC1 [4]): 6.54 ± 0.11 µM
IC50 (A549 [5]): 8.04 ± 0.28 µM
IC50 (HepG2 [6]): 6.12 ± 0.33 µM
IC50 at 72 h (in vitro [7]): 147.1 ± 0.51 µM
IC50 (Human HDAC11): 5.5 µM
IC50 (HL60): 0.67 ± 0.09 µM
IC50 (MOLM13; [14]): 0.81 ± 0.09 µM

O=C(NO)c1ccc(Cn2c(=O)n(CCc3ccccc3)c(=O)c3ccc(Cl)cc32)cc1 [Compound 8, 4-((7-chloro-2,4-dioxo-3-phenethyl-3,4-dihydroquinazolin-1(2H)-yl)methyl)-N-hydroxybenzamide]
IC50 (MV4-11; [13]): 0.37 ± 0.02 µM
IC50 at 72 h (in vitro [1]): 85.74 ± 0.17 µM
IC50 (U87MG [2]): 2.1 ± 0.06 µM
IC50 (Human HDAC8): 1.64 µM
IC50 (LNCap [3]): 1.07 ± 0.14 µM
IC50 (Human HDAC1): 9.54 µM
IC50 (Human HDAC6): 0.021 µM
IC50 (PANC1 [4]): 3.52 ± 0.09 µM
IC50 (A549 [5]): 2.28 ± 0.27 µM
IC50 (HepG2 [6]): 2.74 ± 0.29 µM
IC50 at 72 h (in vitro [7]): 75.79 ± 0.12 µM
IC50 (HL60): 0.44 ± 0.04 µM
IC50 (MOLM13; [14]): 0.48 ± 0.08 µM

O=C(NO)c1ccc(Cn2c(=O)n(CCc3ccccc3)c(=O)c3cc(Cl)ccc32)cc1 [Compound 9, 4-((6-chloro-2,4-dioxo-3-phenethyl-3,4-dihydroquinazolin-1(2H)-yl)methyl)-N-hydroxybenzamide]
IC50 (LNCap [8]): 1.01 ± 0.11 µM
IC50 (MV4-11; read-out: Cytotoxicity IC50 Leukemia MV4-11, MTT assay, 72 hr treated): 2.78 ± 0.03 µM
IC50 at 72 h (in vitro [1]; Vero normal cells): 77.51 ± 0.14 µM
IC50 (PANC1 [9]): 4.05 ± 0.12 µM
IC50 (A549 [10]): 2.45 ± 0.51 µM
IC50 (Human HDAC1): 18.9 µM
IC50 (HepG2 [11]): 2.03 ± 0.47 µM
IC50 (Human HDAC6): 0.035 µM
IC50 at 72 h (in vitro [7]; FHs173We normal cells): 70.34 ± 0.12 µM
IC50 (U87MG [12]): 2.26 ± 0.13 µM
IC50 (HL60): 2.71 ± 0.05 µM
IC50 (MOLM13; read-out: Cytotoxicity IC50 Leukemia MOLM13, MTT assay, 72 hr treated): 2.82 ± 0.07 µM

O=C(NO)c1ccc(Cn2c(=O)n(CCc3ccc(F)cc3)c(=O)c3ccccc32)cc1 [Compound 14, 4-((3-(4-fluorophenethyl)-2,4-dioxo-3,4-dihydroquinazolin-1(2H)-yl)methyl)-N-hydroxybenzamide]
IC50 (MV4-11; [13]): 1.77 ± 0.05 µM
IC50 at 72 h (in vitro [1]): 116 ± 0.23 µM
IC50 (U87MG [2]): 6.31 ± 0.63 µM
IC50 (Human HDAC8): 1.05 µM
IC50 (LNCap [3]): 4.25 ± 0.21 µM
IC50 (Human HDAC1): 10.8 µM
IC50 (Human HDAC6): 0.023 µM
IC50 (PANC1 [4]): > 10 µM
IC50 (A549 [5]): 6.35 ± 0.11 µM
IC50 (HepG2 [6]): 6.82 ± 0.12 µM
IC50 at 72 h (in vitro [7]): 83.81 ± 0.19 µM
IC50 (Human HDAC11): 14.7 µM
IC50 (HL60): 1.37 ± 0.07 µM
IC50 (MOLM13; [14]): 1.62 ± 0.09 µM

O=C(Cc1ccc(Cn2c(=O)n(CCc3ccccc3)c(=O)c3ccccc32)cc1)NO [Compound 16, 2-(4-((2,4-dioxo-3-phenethyl-3,4-dihydroquinazolin-1(2H)-yl)methyl)phenyl)-N-hydroxyacetamide]
IC50 (MV4-11; [13]): 3.04 ± 0.08 µM
IC50 at 72 h (in vitro [1]): 160.3 ± 0.23 µM
IC50 (U87MG [2]): 6.28 ± 0.12 µM
IC50 (LNCap [3]): 6.05 ± 0.31 µM
IC50 (PANC1 [4]): 8.73 ± 0.24 µM
IC50 (A549 [5]): 7.07 ± 0.42 µM
IC50 (HepG2 [6]): 6.99 ± 1.07 µM
IC50 at 72 h (in vitro [7]): 163.2 ± 0.27 µM
IC50 (HL60): 2.77 ± 0.04 µM
IC50 (MOLM13; [14]): 3.29 ± 0.16 µM

O=C(NO)c1ccc(Cn2c(=O)n(CCc3ccccc3)c(=O)c3cc(F)ccc32)cc1 [Compound 17, 4-((6-fluoro-2,4-dioxo-3-phenethyl-3,4-dihydroquinazolin-1(2H)-yl)methyl)-N-hydroxybenzamide]
IC50 (MV4-11; [13]): 3.13 ± 0.09 µM
IC50 at 72 h (in vitro [1]): 123.2 ± 0.33 µM
IC50 (U87MG [2]): 6.13 ± 0.78 µM
IC50 (Human HDAC8): 1.16 µM
IC50 (LNCap [3]): 5.74 ± 0.51 µM
IC50 (Human HDAC1): 13.4 µM
IC50 (Human HDAC6): 0.057 µM
IC50 (PANC1 [4]): 8.47 ± 0.04 µM
IC50 (A549 [5]): 8.96 ± 0.17 µM
IC50 (HepG2 [6]): 6.64 ± 0.92 µM
IC50 at 72 h (in vitro [7]): 100.5 ± 0.37 µM
IC50 (Human HDAC11): 16.7 µM
IC50 (HL60): 2.37 ± 0.11 µM
IC50 (MOLM13; [14]): 356 ± 0.09 µM

O=C(Cc1ccc(Cn2c(=O)n(CCc3ccccc3)c(=O)c3ccccc32)c(F)c1)NO [Compound 19, 2-(4-((2,4-dioxo-3-phenethyl-3,4-dihydroquinazolin-1(2H)-yl)methyl)-3-fluorophenyl)-N-hydroxyacetamide]
IC50 (MV4-11; [13]): 1.87 ± 0.03 µM
IC50 at 72 h (in vitro [1]): 37.82 ± 0.03 µM
IC50 (U87MG [2]): 2.64 ± 0.04 µM
IC50 (LNCap [3]): 1.87 ± 0.18 µM
IC50 (PANC1 [4]): 4.29 ± 0.08 µM
IC50 (A549 [5]): 2.98 ± 0.12 µM
IC50 (HepG2 [6]): 2.75 ± 0.02 µM
IC50 at 72 h (in vitro [7]): 32.7 ± 0.03 µM
IC50 (HL60): 1.68 ± 0.09 µM
IC50 (MOLM13; [14]): 1.74 ± 0.08 µM

Cc1ccc2c(=O)n(CCc3ccccc3)c(=O)n(Cc3ccc(C(=O)NO)cc3)c2c1 [Compound 22, N-hydroxy-4-((7-methyl-2,4-dioxo-3-phenethyl-3,4-dihydroquinazolin-1(2H)-yl)methyl)benzamide]
IC50 (MV4-11; [13]): 1.64 ± 0.07 µM
IC50 at 72 h (in vitro [1]): 127.4 ± 0.28 µM
IC50 (U87MG [2]): 5.68 ± 0.19 µM
IC50 (Human HDAC8): 2.52 µM
IC50 (LNCap [3]): 5.38 ± 0.41 µM
IC50 (Human HDAC1): 10.9 µM
IC50 (Human HDAC6): 0.17 µM
IC50 (PANC1 [4]): 8.73 ± 0.71 µM
IC50 (A549 [5]): 7.44 ± 0.12 µM
IC50 (HepG2 [6]): 6.82 ± 0.44 µM
IC50 at 72 h (in vitro [7]): 135.1 ± 0.39 µM
IC50 (Human HDAC11): 52.1 µM
IC50 (HL60): 1.46 ± 0.08 µM
IC50 (MOLM13; [14]): 1.77 ± 0.05 µM

N#Cc1ccc2c(=O)n(CCc3ccccc3)c(=O)n(Cc3ccc(CC(=O)NO)cc3)c2c1 [Compound 23, 2-(4-((7-cyano-2,4-dioxo-3-phenethyl-3,4-dihydroquinazolin-1(2H)-yl)methyl)phenyl)-N-hydroxyacetamide]
IC50 (MV4-11; [13]): 1.19 ± 0.07 µM
IC50 at 72 h (in vitro [1]): 95.27 ± 0.58 µM
IC50 (U87MG [2]): 4.12 ± 0.06 µM
IC50 (LNCap [3]): 4.05 ± 0.07 µM
IC50 (PANC1 [4]): 5.12 ± 0.11 µM
IC50 (A549 [5]): 4.21 ± 0.03 µM
IC50 (HepG2 [6]): 4.24 ± 0.03 µM
IC50 at 72 h (in vitro [7]): 92.11 ± 0.69 µM
IC50 (HL60): 1.25 ± 0.08 µM
IC50 (MOLM13; [14]): 2.32 ± 0.07 µM

O=C(NO)c1ccc(Cn2c(=O)n(CCc3cccc(F)c3)c(=O)c3ccccc32)cc1 [Compound 26, 4-((3-(3-fluorophenethyl)-2,4-dioxo-3,4-dihydroquinazolin-1(2H)-yl)methyl)-N-hydroxybenzamide]
IC50 (MV4-11; [13]): 3.71 ± 0.11 µM
IC50 at 72 h (in vitro [1]): 93.26 ± 0.25 µM
IC50 (U87MG [2]): 3.77 ± 0.25 µM
IC50 (Human HDAC8): 0.428 µM
IC50 (LNCap [3]): 0.96 ± 0.02 µM
IC50 (Human HDAC1): 13.2 µM
IC50 (Human HDAC6): 0.01 µM
IC50 (PANC1 [4]): 5.03 ± 0.19 µM
IC50 (A549 [5]): 4.58 ± 0.21 µM
IC50 (HepG2 [6]): 4.03 ± 0.11 µM
IC50 at 72 h (in vitro [7]): 84.34 ± 0.73 µM
IC50 (Human HDAC11): 10.7 µM
IC50 (HL60): 3.12 ± 0.08 µM
IC50 (MOLM13; [14]): 4.01 ± 0.06 µM
